Laboratory results: patent US20080249074A1, “Composition for the Transdermal Administration of Physiologically Active Agents” (LABORATORIOS BELMAC, S.A., priority 2005, published 2008)

Tested on: carrageenan-induced rat paw plantar edema
Experiment: Anti-inflammatory effect of oleuropein compositions in the form of an oil
Format: in vivo
Settings: for increase % vs. V0 / inhibition % vs. blank-vehicle / increase vs. V0 % / inhibition vs. blank-vehicle %: topical; for increase % vs. V0 / inhibition % vs. blank-vehicle: V1, 60 minutes; for increase vs. V0 % / inhibition vs. blank-vehicle %: V2, 180 minutes
Description: The test was performed according to the method disclosed by Winter et al. (Proc. Soc. Exp. Biol. Med. 1962; vol. 111, pp. 544-547), adapted to the rat paw. The method consisted in the injection of 100 μl of a 0.75% carrageenan solution in physiological saline in the plantar face of the left hind paw of the rat. The volume of the paws was determined by a plethysmometer just before the injection of the carrageenan (V0), 60 minutes after the injection (V1) and 180 minutes (V2) after the injection.
The tested substances were administered topically according to a modification of the method disclosed by Mass6 et al. (Rev. Farmacol. Clin. Exp. 1990, vol. 7, p. 85), following a blind and randomized trial. 100 μl of the substance to be tested were applied over the paw of the animal, spread over the whole surface of the paw, massaging until the complete absorption. The application was repeated 2 times, namely 18 h before the injection of carrageenan and 60 minutes before said injection. Simultaneously to the application, 30 ml/kg of distilled water were administered orally.
Using the method described in Example 7, the anti-inflammatory effect of the four compositions in the form of an oil prepared according to Example 1, which comprised a 0.1%, 0.2%, 0.4%, and 0.8% of oleuropein w/w, respectively, was studied. The blank-vehicle was prepared by the same method as the compositions tested excluding the active ingredient.
The mean±S.E.M. of the volumes of the animal paws was calculated for the three observation periods V0, V1 and V2. The average values of every experimental group were used for the determination of the average increase of the volume of the paws as an effect of the injection of carrageenan during the periods of observation V1 and V2 with regard to the initial volume (V0), and, then, the percentages of the variation of said values with regard to the blank-vehicle group were determined. Finally, the 50% Effective Concentration (EC 50) was calculated through a linear regression optimized by the least squares method. The evaluation of the statistic signification of the variation was performed by the Student's t-test for independent data using a p<0.05 level to establish the difference criteria. […] However, as estimation, it is obtained that EC 50 of the oleuropein composition in the form of an oil is about 0.7%.

## C/C=C1/[C@H](O[C@@H]2O[C@H](CO)[C@@H](O)[C@H](O)[C@H]2O)OC=C(C(=O)OC)[C@H]1CC(=O)OCCc1ccc(O)c(O)c1 [Oleuropein, oleuropein]
0.1% (w/w) oleuropein oil
  increase % vs. V0: 27.39%
  inhibition % vs. blank-vehicle: 14.62%
  increase vs. V0 %: 43.59%
  inhibition vs. blank-vehicle %: 12.38%
0.2% (w/w) oleuropein oil
  increase % vs. V0: 24.75%
  inhibition % vs. blank-vehicle: 22.86%
  increase vs. V0 %: 36.80%
  inhibition vs. blank-vehicle %: 26.03%
0.4% (w/w) oleuropein oil
  increase % vs. V0: 18.55%
  inhibition % vs. blank-vehicle: 42.19%
  increase vs. V0 %: 26.80%
  inhibition vs. blank-vehicle %: 46.13%
0.8% (w/w) oleuropein oil
  increase % vs. V0: 16.13%
  inhibition % vs. blank-vehicle: 49.73%
  increase vs. V0 %: 25.71%
  inhibition vs. blank-vehicle %: 48.31%
Oily composition of oleuropein
  maximum estimated effect, inhibition: about 50%
Oleuropein concentration in the oil composition
  concentration up to which the effect is lineal: about 0.4%
Oleuropein concentration in the oil composition, linear regression by least squares, estimation
  50% Effective Concentration (EC 50): about 0.7%
